Results reported in publication PMC7567501 (Journal of Enzyme Inhibition and Medicinal Chemistry, 2019).
pEC50: −log10 of the molar value.

How the values were obtained:
[1] = Radical scavenging (anti-oxidant) activity, DPPH method; assay type: physicochemical; conditions: DPPH in methanol, 30 min, room temperature
Protocol: A selection of the newly synthesised hybrids was tested for their radical scavenging activity (anti-oxidant activity, EC50), based on their interaction with the 2,2-diphenyl-1-picrylhydrazyl (DPPH) free radical, as previously described.
The anti-oxidant capacity or, more precisely, radical scavenging activity based on the electron and proton donation ability, was evaluated by the DPPH method previously described[29]^,[46]. To a 2.5 mL solution of DPPH (0.002%) in methanol, solutions of each compound were added in different volumes to obtain different concentrations in a 3.5 mL final volume. The samples were incubated for 30 min at room temperature. The absorbance was measured at 517 nm against the corresponding blank (methanol). The antioxidant activity was calculated by Eq. (1)^29. (1) %AA = ((ADPPH−Asample)/ADPPH) × 100
The tests were carried out in triplicate. The compound concentration providing 50% of antioxidant activity (EC50) was obtained by plotting the antioxidant activity against the compound concentration.

[2] = tested on: SH-SY5Y cells; experiment: Dose-response screening for non-toxic concentrations, MTT reduction assay; assay type: cell-based, human; conditions: 10 µM to 40 µM, 25 h
Protocol: The neuroprotective effect of these new multi-target drugs designed for AD was evaluated using SH-SY5Y cells treated with Aβ1-42 peptides or ascorbate/iron. For each compound we performed a dose-response curve to select a non-toxic concentration (Figure 7).
Figure 7. Dose-response screening to select non-toxic concentrations of TAC-BF hybrids. Cells were treated with varying concentration of TAC-BF conjugates (from 10 μM to 40 μM) for 25 h and cell viability was determined using the MTT reduction assay.
SH-SY5Y human neuroblastoma cell line (ATCC-CRL-2266) is grown in Dulbecco’s modified Eagle’s medium (DMEM), and were obtained from Gibco-Invitrogen (Life Technologies Ltd, UK) with 10% heat inactivated foetal calf serum, containing 50 U/mL penicillin and 50 µg/mL streptomycin, under a humidified atmosphere of 95% air- 5% CO2 at 37 °C. Cells were plated at 0.12 × 10^6 cells/mL for cell viability assay. The tested compounds (18, 19, 20, 21, 23 and 24) were dissolved in DMSO at a concentration of 50 mM and aliquots were stored at −20 °C. We performed a dose-response screening (from 10 µM to 40 µM) in order to choose the highest non-toxic concentration. As a result we selected: 20 µM final concentrations for compounds 18, 19, 20 and 23; 20 µM final concentration for compound 19; 35 µM final concentration for compounds 21 and 24. […] The compounds were added to the cell media 1 h before the incubation with Aβ1-42 or L-ascorbic acid/ferrous sulphate. Aβ1-42 or L-ascorbic acid/ferrous sulphate where incubated alone or with the compound for an additional 24 h. Aβ1-42 was prepared as 276.9 µM stock in sterile water and added to the medium at 2.5 µM final concentration. Ferrous sulphate was freshly prepared as 0.36 M stock in water and added to the medium at 500 µM final concentration. L-Ascorbic Acid was freshly prepared as 80 mM stock in water and added to the medium at 5 mM final concentration. Aβ1-42 was purchased from Bachem (Torrance, CA, USA) and ferrous sulphate and L-ascorbic acid from Sigma Chemical Co (St. Louis, MO, USA).
Cell viability was determined by the MTT (3–(4,5-dimethylthiazol-2-yl)-2,5-diphenyltetrazolium bromide) reduction test. In viable cells, the enzyme succinate dehydrogenase metabolises MTT into a formazan that absorbs light at 570 nm. Following the cell treatment protocol, the medium was aspirated and 0.5 mL MTT (0.5 mg/mL) was added to each well. The plate was then incubated at 37 °C for 1 h 30 min protected from light. At the end of the incubation period, the formazan precipitates were solubilised with 0.5 mL of acidic isopropanol (0.04 M HCl/isopropanol). The absorbance was measured at 570 nm[51]. Cell reduction ability was expressed as a percentage of untreated control cells.

[3] = tested on: SH-SY5Y cells; experiment: Neuroprotection from Aβ42-induced toxicity, MTT reduction assay; assay type: cell-based, human; conditions: Aβ42 2.5 μM 24 h; 1 h pre-incubation + 24 h co-incubation; 18, 19, 20, 23 at 20 µM; 21, 24 at 35 µM
Protocol: Figure 8. Neuroprotective effect of TAC-BF hybrids from Aβ42-induced toxicity on SH-SY5Y cells. Cells were treated with Aβ42 peptide (2.5 μM) for 24 h in the absence or in the presence of the compounds (1 h pre-incubation + 24 h co-incubation). Evaluation of cell viability was performed using the MTT reduction assay. […] (compounds: 18, 19, 20 and 23 – 20 µM; 21, 24 – 35 µM).
(§1) SH-SY5Y human neuroblastoma cell line (ATCC-CRL-2266) is grown in Dulbecco’s modified Eagle’s medium (DMEM), and were obtained from Gibco-Invitrogen (Life Technologies Ltd, UK) with 10% heat inactivated foetal calf serum, containing 50 U/mL penicillin and 50 µg/mL streptomycin, under a humidified atmosphere of 95% air- 5% CO2 at 37 °C. Cells were plated at 0.12 × 10^6 cells/mL for cell viability assay. The tested compounds (18, 19, 20, 21, 23 and 24) were dissolved in DMSO at a concentration of 50 mM and aliquots were stored at −20 °C. We performed a dose-response screening (from 10 µM to 40 µM) in order to choose the highest non-toxic concentration. […]
(§2) Cell viability was determined by the MTT (3–(4,5-dimethylthiazol-2-yl)-2,5-diphenyltetrazolium bromide) reduction test. […] The absorbance was measured at 570 nm[51]. Cell reduction ability was expressed as a percentage of untreated control cells.

[4] = tested on: SH-SY5Y cells; experiment: Neuroprotection against ascorbate/iron (Asc/Fe) toxicity, MTT reduction assay; assay type: cell-based, human; conditions: Asc/Fe 5 mM/500 μM 24 h after 1 h compound; 18, 19, 20, 23 at 20 µM; 21, 24 at 35 µM
Protocol: Figure 9. Neuroprotective effect of TAC-BF conjugates against L-Ascorbic Acid (AscH(-))/Ferrous Sulphate (Fe) toxicity on SH-SY5Y cells. Cells were treated with Asc/Fe (5 mM/500 μM, respectively) for 24 h, after treatment for 1 h in the absence or in the presence of the compounds. Evaluation of cell viability was performed by using MTT reduction assay. […] (compounds: 18, 19, 20 and 23 – 20 µM; 21, 24 – 35 µM).
as §1, §2

| SMILES | pEC50 [1] | highest non-toxic concentration selected from dose-response screening [2] [µM] | Neuroprotective effect from Aβ42-induced toxicity (cell viability) [3] | Neuroprotective effect against Asc/Fe toxicity (cell viability) [4] |
| --- | --- | --- | --- | --- |
| COc1cccc2cc(C(=O)NCCCCNc3c4c(nc5cc(Cl)ccc35)CCCC4)oc12 [Compound 20, N-(4-((6-chloro-1,2,3,4-tetrahydroacridin-9-yl)amino)butyl)-7-methoxybenzofuran-2-carboxamide] | < 3.00 | 20 |  |  |
| O=C(NCCCNc1c2c(nc3cc(Cl)ccc13)CCCC2)c1cc2cccc(O)c2o1 [Compound 23, N-(3-((6-chloro-1,2,3,4-tetrahydroacridin-9-yl)amino)propyl)-7-hydroxybenzofuran-2-carboxamide] |  | 20 | prevented that Aβ-induced cell toxicity |  |
| COc1cccc2cc(C(=O)NCCCNc3c4c(nc5cc(Cl)ccc35)CCCC4)oc12 [Compound 19, N-(3-((6-chloro-1,2,3,4-tetrahydroacridin-9-yl)amino)propyl)-7-methoxybenzofuran-2-carboxamide] |  | 20 | prevented that Aβ-induced cell toxicity | appeared to best achieve cell protection from Asc/Fe-induce oxidative stress |
| O=C(NCCCNc1c2c(nc3ccccc13)CCCC2)c1cc2cccc(O)c2o1 [Compound 21, 7-Hydroxy-N-(3-((1,2,3,4-tetrahydroacridin-9-yl)amino)propyl)benzofuran-2-carboxamide] | 3.32 | 35 |  | lowest capacity for in cell radical scavenging |
| O=C(NCCCCNc1c2c(nc3cc(Cl)ccc13)CCCC2)c1cc2cccc(O)c2o1 [Compound 24, N-(4-((6-chloro-1,2,3,4-tetrahydroacridin-9-yl)amino)butyl)-7-hydroxybenzofuran-2-carboxamide] | 3.36 | 35 |  |  |
